Data reported in patent publication US8748497B2, “Optimized fluorocarbon emulsions for blood substitutes and other therapeutic uses” (Alliance Pharmaceutical Corp., priority 2006, dated 2014).
Like-named read-outs stand apart in the source and are kept apart here.

Experiments:
[1] = pharmacokinetics in blood after single intravenous administration of the emulsion of Ex. VI; assay type: in vivo, Sprague Dawley rats; details: for half-life: Sprague-Dawley, rat, iv; for half-life / AUC(o-last) / AUC(o-∞) / Cl: blood; for Vd: terminal phase
Description: (§1) This study was designed to assess the pharmokinetics and tissue distribution of PFOB and PFDB following a single intravenous administration of the emulsion of Ex. VI at various time intervals at dose levels of 1.8 and 3.6 g PFC/k in male and female Sprague Daley rats, aged 7-9 weeks, weight between 190-267 grams. For pharmacokinetics, 160 rats were divided into 20 groups (N=4 rats/sex/dose/time interval) and for tissue distribution, 156 rats were divided into 26 groups (n=3 rats/sex/dose/time interval). The time intervals for pharmacokinetics blood sampling were 0.083, 0.5, 1, 3, 6, 12, 36, 48, 72 and 96 hours. The time intervals for tissue sampling was predose, 24 hours, 1, 2, 4, 8, 13, 17, 21, 26, 39, 52 and 72 weeks.
Six pharmacokinetic parameters were determined following a single intravenous dose of 1.8 gPFC/kg or 3.6 g PFC/kg in both the male and female rats as shown in the tables below.

[2] = tissue distribution after single intravenous administration of the emulsion of Ex. VI, GC headspace; assay type: in vivo, Sprague Dawley rats; details: 24 hours; for concentration at 24 h: Sprague-Dawley, rat, intravenous
Description: as §1
26 groups (N=3 rats/sex/group). Prior to euthanasia, body weights were recorded. At designated times (see below), rats were anesthetized with METOFANE® and esanguinated via the abdominal artery. Blood was collected into syringes containing EDTA and transferred into sealed plastic containers for storage at approximately −20° C. until analyzed. Resultant data were included in the determination of pharmacokinetic parameters. The following tissues were collected from each rat and placed in sealed containers and stored frozen at −20° C. Prior to freezing, blood and tissue samples were processed for analysis. PFOB and PFDB were quantified in blood and tissues using a GC headspace method validated by Oread. The method was validated in the liver and then cross validated to all other tissues, blood, and serum. The tissues collected and analyzed include heart, lungs, abdominal fat, spleen, liver, mesenteric lymph nodes, kidneys, adrenals, testes, ovaries, uterus, whole brain, eyes, skeletal muscle, femoral bone marrow, and gastrointestinal tract.
The concentration of PFOB and PFDB was determined in the tissues in both sexes at 12 time points. For the males, this was a total of 360 individual results including blood. There were 24 additional results for the female.

[3] = Phase 1 pharmacokinetics in healthy human volunteers; assay type: in vivo; details: human, blood; for AUC(0-t) / half-life: intravenous; for AUC(0-t): read-out: AUC (0-336); for half-life: read-out: t1/2. 12 h (initial elimination half-life within the first 12 h post dose) (converted); for Cmax: iv, healthy volunteers
Procedure: Two randomised, controlled, double-blind, parallel group, Phase 1 studies were conducted in healthy human patients with the fluorocarbon emulsion made according to Example VI. Blood and expired air samples were analysed for PFOB and PFDB after a single intravenous dose of 1.2 or 1.8 g PFC/kg of the fluorocarbon emulsion of Example VI in healthy human volunteers to determine pharmacokinetics. Blood samples were collected up to 336 hours post-dosing.

[4] = pharmacokinetics in subjects undergoing noncardiac surgical procedures; assay type: in vivo, human; details: noncardiac surgery; for AUC(0-inf) / clearance / Cmax / half-life: human, whole blood; for clearance: read-out: CL (whole blood clearance) (converted); for Cmax: read-out: Cmax (maximum whole blood concentration); for half-life: read-out: T1/2 (elimination half-life) (converted)
Procedure: The pharmacokinetics of PFOB and PFDB were determined after the administration of the fluorocarbon emulsion of Example VI to subjects undergoing total hip replacement or spinal surgery or a variety of urologic and gynaecologic procedures including radical retropubic prostatectomy, radical hysterectomy, cystectomy and combined procedures. Human subjects in one study received either 0.9 g PFC/kg or 1.8 g PFC/kg of the fluorocarbon formulation of Example VI and those in a second study received 1.8 g PFC/kg of the fluorocarbon formulation of Example VI.

[5] = pharmacokinetics in subjects undergoing CABG surgery with hypothermic CPB; assay type: in vivo, human
Procedure: The pharmacokinetics of PFOB and PFDB were determined after the administration of the fluorocarbon formulation taught in Example VI to human subjects undergoing coronary artery bypass grafting or CABG surgery with hypothermic cardiopulmonary bypass. In group 1 and in group 2, human subjects received the fluorocarbon emulsion (2.7 g PFC/kg) as taught in Example VI directly into the bypass oxygenator after being put on bypass but before cooling was begun. In group 4, subjects received 2.7 g PFC/kg of the fluorocarbon emulsion of Example VI directly into the bypass oxygenator either prior to aortic cannulation or after being put on bypass, but before cooling was begun.

[6] = four compartment model; cited from earlier work
[7] = female rats, 1.8 g PFC/kg single iv
[8] = female rats, 3.6 g PFC/kg single iv
[9] = male rats, 1.8 g PFC/kg single iv
[10] = male rats, 3.6 g PFC/kg single iv
[11] = 1.2 g PFC/kg, Table VII, 1.2 g PFC/kg
[12] = 1.2 g PFC/kg, Table VIII, 1.2 g PFC/kg
[13] = 1.8 g PFC/kg, Table VII, 1.8 g PFC/kg
[14] = 1.8 g PFC/kg, Table VIII, 1.8 g PFC/kg

half-life ([1]; both sexes, 1.8 g/kg, male and female rats, 1.8 g PFC/kg, read-out: average terminal t1/2 (converted)): ~73 h
half-life ([1]; both sexes, 3.6 g/kg, male and female rats, 3.6 g PFC/kg, read-out: average terminal t1/2 (converted)): 181 h
AUC(o-last) [1, 7]: 126.86 mg·h/g
AUC(o-∞) [1, 7]: 126.89 mg·h/g
Cl [1, 7]: 5.41 g/h/kg
Vd [1, 7]: 1605.67 g/kg
AUC(o-last) [1, 8]: 541.55 mg·h/g
AUC(o-∞) [1, 8]: 541.58 mg·h/g
Cl [1, 8]: 6.70 g/h/kg
Vd [1, 8]: 1182.97 g/kg
half-life ([1]; female, 1.8 g/kg, female rats, 1.8 g PFC/kg single iv, last 3 or 4 data points, read-out: T1/2 (converted)): 78.5 h
half-life ([1]; female, 3.6 g/kg, female rats, 3.6 g PFC/kg single iv, last 3 or 4 data points, read-out: T1/2 (converted)): 123 h
AUC(o-last) [1, 9]: 122.65 mg·h/g
AUC(o-∞) [1, 9]: 122.69 mg·h/g
Cl [1, 9]: 6.01 g/h/kg
Vd [1, 9]: 1443.18 g/kg
AUC(o-last) [1, 10]: 566.13 mg·h/g
AUC(o-∞) [1, 10]: 566.15 mg·h/g
Cl [1, 10]: 8.93 g/h/kg
Vd [1, 10]: 2191.83 g/kg
half-life ([1]; male, 1.8 g/kg, male rats, 1.8 g PFC/kg single iv, last 3 or 4 data points, read-out: T1/2 (converted)): 68.2 h
half-life ([1]; male, 3.6 g/kg, male rats, 3.6 g PFC/kg single iv, last 3 or 4 data points, read-out: T1/2 (converted)): 238 h
concentration in the liver and bone marrow ([2]; all four groups): greater than 10 mg/g
percent of dose in liver ([2]; female rats, 1.8 g PFC/kg): approximately 63%
percent of dose in spleen ([2]; female rats, 1.8 g PFC/kg): approximately 4%
percent of dose in liver ([2]; female rats, 3.6 g PFC/kg): approximately 53%
percent of dose in spleen ([2]; female rats, 3.6 g PFC/kg): < 1%
concentration at 24 h ([2]; female, females 1.8 g PFC/kg, all tissues except the blood, eyes, and skeletal muscle, read-out: concentration in tissues): > 100000 ng/g
concentration at 24 h ([2]; female, females 3.6 g/kg of PFC, all tissues, read-out: concentration in tissues): > 100000 ng/g
percent of dose in liver ([2]; male rats, 1.8 g PFC/kg): approximately 59%
percent of dose in spleen ([2]; male rats, 1.8 g PFC/kg): < 1%
percent of dose in liver ([2]; male rats, 3.6 g PFC/kg): approximately 69%
concentration at 24 h ([2]; male, 3.6 g PFC/kg, males 3.6 PFC/kg, all tissues, read-out: concentration in tissues): > 100000 ng/g
concentration at 24 h ([2]; male, males 1.8 g/kg of PFC, all tissues except the eyes and skeletal muscles, read-out: absolute concentration in tissues): > 100000 ng/g
AUC(0-t) [3, 11]: 10.2 µg·h/mL
half-life [3, 11]: 6.55 ± 2.06 h
AUC(0-t) [3, 12]: 79200 µg·h/mL
half-life [3, 12]: 5.41 h
AUC(0-t) [3, 13]: 285000 µg·h/mL
half-life [3, 13]: 10.5 ± 2.1 h
AUC(0-t) [3, 14]: 239000 µg·h/mL
half-life [3, 14]: 7.66 h
Cmax ([3]; 1.2 g PFC/kg, Table VII, 1.2 g PFC/kg single iv): 13600 µg/mL
Cmax ([3]; 1.2 g PFC/kg, Table VIII, 1.2 g PFC/kg single iv): 12600 µg/mL
Cmax ([3]; 1.8 g PFC/kg, Table VII, 1.8 g PFC/kg single iv): 22700 µg/mL
Cmax ([3]; 1.8 g PFC/kg, Table VIII, 1.8 g PFC/kg single iv): 21800 µg/mL
AUC(0-inf) ([4]; 0.9 g PFC/kg): 13300 µg·h/mL
clearance ([4]; 0.9 g PFC/kg): 1.61 mL/min/kg
Cmax ([4]; 0.9 g PFC/kg): 7680 µg/mL
half-life ([4]; 0.9 g PFC/kg): 2.36 ± 3.06 h
AUC(0-inf) ([4]; 1.8 g PFC/kg): 57400 µg·h/mL
clearance ([4]; 1.8 g PFC/kg): 0.703 mL/min/kg
Cmax ([4]; 1.8 g PFC/kg): 17500 µg/mL
half-life ([4]; 1.8 g PFC/kg): 3.77 ± 2.69 h
whole blood concentration relative to PFDB [4]: approximately 30 fold
whole blood concentration relative to PFDB [5]: ~30 fold
AUC(0-inf) ([5]; human, whole blood, other: directly into the bypass oxygenator, 2.7 g PFC/kg): 300000 µg·h/mL
clearance ([5]; human, whole blood, other: directly into the bypass oxygenator, 2.7 g PFC/kg, read-out: CL (whole blood clearance) (converted)): 0.165 mL/min/kg
Cmax ([5]; human, whole blood, other: directly into the bypass oxygenator, 2.7 g PFC/kg, read-out: Cmax (maximum whole blood concentration)): 30300 µg/mL
half-life ([5]; human, whole blood, other: directly into the bypass oxygenator, 2.7 g PFC/kg, read-out: T1/2 (elimination half-life) (converted)): 7.65 ± 2.71 h
SMILES: FC(F)(F)C(F)(F)C(F)(F)C(F)(F)C(F)(F)C(F)(F)C(F)(F)C(F)(F)Br [PFOB, perfluorooctyl bromide]
rate constant k10 [6]: ≈ 0.000 hr^−1
rate constant k12 [6]: ≈ 0.04 hr^−1
rate constant k24 [6]: ≈ 0.006 hr^−1
rate constant k34 [6]: ≈ 0.002 hr^−1
rate constant k40 [6]: ≈ 0.07 hr^−1
rate constant k42 [6]: ≈ 0.002 hr^−1
